Patent publication US11628181B2, “N4-hydroxycytidine and derivatives and anti-viral uses related thereto” (Emory University, priority 2014, dated 2023)
Values after ≈ are worked out from the molar mass of the structure shown. Like-named read-outs stand apart in the source and are kept apart here.

Legend:
MERV = MERV (MOI 0.4) viral inhibition in Vero; assay type: cell-based; settings: MERV MOI 0.4, Vero; for inhibition at 10 µM: read-out: Viral Inh. 10 uM; for inhibition at 50 µM: read-out: Viral Inh. 50 uM
Vero = experiment: Cell viability, Vero (MERV screen); assay type: cell-based
in vitro [1] = experiment: in vitro
CHIKV = experiment: microbe, parasite or virus in culture; settings: Chikungunya virus
SARS Coronavirus Urbani = experiment: microbe, parasite or virus in culture; assay type: cell-based; settings: Severe acute respiratory syndrome-related coronavirus, Vero 76
in vitro [2] = settings: African green monkey
VEEV [3] = experiment: microbe, parasite or virus in culture; assay type: cell-based; settings: Venezuelan equine encephalitis virus, Astrocyte; for inhibition at 10 µM: read-out: Viral Inh. 10 uM; for inhibition at 50 µM: read-out: Viral Inh. 50 uM
Chikungunya virus = Chikungunya virus (MOI 0.5) viral inhibition in U2OS cell line; assay type: cell-based; settings: for inhibition at 10 µM: read-out: Viral Inh. 10 uM; for inhibition at 50 µM: read-out: Viral Inh. 50 uM
U2OS cell line = experiment: Cell viability, U2OS cell line (Chikungunya screen)
VEEV [4] = experiment: microbe, parasite or virus in culture; assay type: cell-based; settings: Venezuelan equine encephalitis virus, HeLa; for inhibition at 10 µM: read-out: Viral Inh. 10 uM; for inhibition at 50 µM: read-out: Viral Inh. 50 uM
HeLa = settings: human

Structure (SMILES): O=c1nc(NO)ccn1[C@@H]1O[C@H](CO)C(O)C1O (stereo partly drawn) [drawing 88]
- inhibition at 10 µM (MERV): 99%
- inhibition at 50 µM (MERV): 100%
- Cell Viability 10 uM (Vero): 75% ± 6% (n = 4)
- Cell Viability 50 uM (Vero): 47% ± 3% (n = 4)

Structure (SMILES): CCCCCCCCCCCCCCCCNC(=O)ONc1ccn([C@@H]2O[C@H](CO)[C@H](O)C2O)c(=O)n1 (stereo partly drawn) [EIDD-02356-01]
- CC50 (in vitro [1]): 211 µM
- EC50 (CHIKV): > 78 µM

Structure (SMILES): C[C@@]1(O)C2OP(=O)(Oc3ccccc3)OC[C@H]2O[C@H]1n1ccc(=O)[nH]c1=O (stereo partly drawn) [EIDD-01872-01]
- CC50 (in vitro [1]): > 500 µM
- EC50 (CHIKV): > 78 µM

Structure (SMILES): CN(C)C(=O)ONc1ccn([C@@H]2O[C@H](CO)[C@H](O)C2O)c(=O)n1 (stereo partly drawn) [EIDD-02423-01]
- CC50 (in vitro [1]): > 500 µM
- EC50 (CHIKV): 25 µM

Structure (SMILES): CCCCCCCCC(=O)ONc1ccn([C@@H]2O[C@H](CO)C(O)C2O)c(=O)n1 (stereo partly drawn)
- EC50 (SARS Coronavirus Urbani): 0.19 µg/mL (≈ 0.476 µM)
- CC50 (in vitro [2]): 36 µg/mL (≈ 90.1 µM)

Structure (SMILES): CCCCCCCNC(=O)ONc1ccn([C@@H]2O[C@H](CO)C(O)C2O)c(=O)n1 (stereo partly drawn) [drawing 87]
- inhibition at 10 µM (VEEV [3]): 51%
- inhibition at 50 µM (VEEV [3]): 37%
- Cell Viability 10 uM (Astrocytes): 98% ± 12% (n = 3)
- Cell Viability 50 uM (Astrocytes): 85% ± 19% (n = 3)

Structure (SMILES): CNC(=O)ONc1ccn([C@@H]2O[C@H](CO)C(O)[C@@H]2O)c(=O)n1 (stereo partly drawn) [EIDD-02422-01]
- CC50 (in vitro [1]): > 500 µM
- EC50 (CHIKV): 32 µM

Structure (SMILES): CC(C)OC(=O)[C@H](C)NP(=O)(OC[C@H]1O[C@@H](n2ccc(NO)nc2=O)C(O)C1O)Oc1ccccc1 (stereo partly drawn) [drawing 90]
- inhibition at 10 µM (MERV): 29%
- inhibition at 50 µM (MERV): 85%
- Cell Viability 10 uM (Vero): 103% ± 14% (n = 4)
- Cell Viability 50 uM (Vero): 102% ± 36% (n = 4)

Structure (SMILES): CCCCCCCOC(=O)ONc1ccn([C@@H]2O[C@H](CO)C(O)C2O)c(=O)n1 (stereo partly drawn) [drawing 89]
- inhibition at 10 µM (MERV): 99%
- inhibition at 50 µM (MERV): 99%
- Cell Viability 10 uM (Vero): 84% ± 8% (n = 4)
- Cell Viability 50 uM (Vero): 58% ± 2% (n = 4)

Structure (SMILES): CCCCCCCOC(=O)ONc1ccn([C@@H]2O[C@H](CO)C(O)C2O)c(=O)n1 (stereo partly drawn) [drawing 84]
- inhibition at 10 µM (VEEV [3]): 94%
- inhibition at 50 µM (VEEV [3]): 100%
- Cell Viability 10 uM (Astrocytes): 99% ± 9% (n = 3)
- Cell Viability 50 uM (Astrocytes): 94% ± 10% (n = 3)

Structure (SMILES): O=c1nc(NO)ccn1[C@@H]1O[C@H](CO)C(O)C1O (stereo partly drawn) [drawing 83]
- inhibition at 10 µM (VEEV [3]): 99%
- inhibition at 50 µM (VEEV [3]): 100%
- Cell Viability 10 uM (Astrocytes): 98% ± 12% (n = 3)
- Cell Viability 50 uM (Astrocytes): 86% ± 5% (n = 3)

Structure (SMILES): O=c1nc(NO)ccn1[C@@H]1O[C@H](CO)C(O)C1O (stereo partly drawn) [drawing 73]
- inhibition at 10 µM (Chikungunya virus): 80%
- inhibition at 50 µM (Chikungunya virus): 100%
- Cell Viability 10 uM (U2OS cell line): 97% ± 5% (n = 4)
- Cell Viability 50 uM (U2OS cell line): 79% ± 10% (n = 4)

Structure (SMILES): O=c1ccn([C@@H]2O[C@H](CO)C(O)[C@]23CC3(F)F)c(=O)[nH]1 (stereo partly drawn) [EIDD-02339-01]
- CC50 (in vitro [1]): > 500 µM
- EC50 (CHIKV): > 78 µM

Structure (SMILES): O=c1nc(NO)ccn1[C@@H]1O[C@H](CO)C(O)C1O (stereo partly drawn) [drawing 78]
- EC50 (VEEV [4]): 1.24 µM
- inhibition at 10 µM (VEEV [4]): 100%
- inhibition at 50 µM (VEEV [4]): 100%
- Cell Viability 10 uM (HeLa): 116% ± 24% (n = 4)
- Cell Viability 50 uM (HeLa): 61% ± 8% (n = 4)

Structure (SMILES): CCCCCCCOC(=O)ONc1ccn([C@@H]2O[C@H](CO)C(O)C2O)c(=O)n1 (stereo partly drawn) [drawing 79]
- EC50 (VEEV [4]): 0.57 µM
- inhibition at 10 µM (VEEV [4]): 100%
- inhibition at 50 µM (VEEV [4]): 100%
- Cell Viability 10 uM (HeLa): 116% ± 20% (n = 4)
- Cell Viability 50 uM (HeLa): 85% ± 8% (n = 4)

Structure (SMILES): CC(C)(C)C(=O)OCOP(=O)(OCOC(=O)C(C)(C)C)OC[C@H]1O[C@@H](n2ccc(=O)[nH]c2=O)[C@](C)(F)C1O (stereo partly drawn) [EIDD-02427-01]
- CC50 (in vitro [1]): 355 µM
- EC50 (CHIKV): 58 µM

Structure (SMILES): CCCCCCCNC(=O)ONc1ccn([C@@H]2O[C@H](CO)C(O)C2O)c(=O)n1 (stereo partly drawn) [drawing 82]
- EC50 (VEEV [4]): 6 µM
- inhibition at 10 µM (VEEV [4]): 93%
- inhibition at 50 µM (VEEV [4]): 100%
- Cell Viability 10 uM (HeLa): 151% ± 16% (n = 4)
- Cell Viability 50 uM (HeLa): 126% ± 7% (n = 4)

Structure (SMILES): CCCCCCCOC(=O)OC[C@H]1O[C@@H](n2ccc(NO)nc2=O)C(O)[C@H]1O (stereo partly drawn) [EIDD-02474-01]
- CC50 (in vitro [1]): 184 µM
- EC50 (CHIKV): 0.07 µM

Structure (SMILES): CCCCCCCNC(=O)ONc1ccn([C@@H]2O[C@H](CO)C(O)C2O)c(=O)n1 (stereo partly drawn) [drawing 77]
- inhibition at 10 µM (Chikungunya virus): 14%
- inhibition at 50 µM (Chikungunya virus): 70%
- Cell Viability 10 uM (U2OS cell line): 105% ± 2% (n = 4)
- Cell Viability 50 uM (U2OS cell line): 96% ± 11% (n = 4)

Structure (SMILES): CC(C)(C)C(=O)OCOP(=O)(OCOC(=O)C(C)(C)C)OC[C@H]1O[C@@H](n2ccc(=O)[nH]c2=O)[C@](C)(O)C1O (stereo partly drawn) [EIDD-02416-01]
- CC50 (in vitro [1]): 53 µM
- EC50 (CHIKV): 27 µM

Structure (SMILES): CC(C)OC(=O)[C@H](C)NP(=O)(OC[C@H]1O[C@@H](n2ccc(NO)nc2=O)C(O)C1O)Oc1ccccc1 (stereo partly drawn) [drawing 75]
- inhibition at 10 µM (Chikungunya virus): 3%
- inhibition at 50 µM (Chikungunya virus): 36%
- Cell Viability 10 uM (U2OS cell line): 99% ± 6% (n = 4)
- Cell Viability 50 uM (U2OS cell line): 99% ± 8% (n = 4)

Structure (SMILES): O=c1ccn([C@@H]2O[C@H](CO)C(O)[C@@]23CC3(F)F)c(=O)[nH]1 (stereo partly drawn) [EIDD-02340-01]
- CC50 (in vitro [1]): > 500 µM
- EC50 (CHIKV): > 78 µM

Structure (SMILES): O=c1nc(NO)c(F)cn1[C@@H]1O[C@H](CO)C(O)C1O (stereo partly drawn) [drawing 81]
- inhibition at 10 µM (VEEV [4]): 61%
- inhibition at 50 µM (VEEV [4]): 98%
- Cell Viability 10 uM (HeLa): 55% ± 4% (n = 4)
- Cell Viability 50 uM (HeLa): 36% ± 2% (n = 4)
